Measured values reported in US10786518B2, “Compositions and methods of treating HIV” (priority 2017, dated 2020).
Values joined by “and” are separate entries in the source; they are usually repeats but may differ in a detail not shown here. Equal values may be shown once. Where a name gives a salt, the structure may show the parent alone. Read-outs that look alike come from different tables or passages of the source. Marks after values point to notes of the source that are not given here.

Key:
[1] = system: HIV-1; settings: n = 102 newly diagnosed treatment-naive patients
[2] = clinical; settings: human
[3] = human, in vivo
[4] = human, in vivo; remark: listed apart in the source
[5] = Food-effect bioavailability study: plasma pharmacokinetics; settings: for AUCinf geometric mean ratio (90% CI), fasted (test) vs fed (reference) / AUClast geometric mean ratio (90% CI), fasted (test) vs fed (reference) / Cmax geometric mean ratio (90% CI), fasted (test) vs fed (reference) / t1/2term, mean (SD) / AUCinf, mean (SD) / AUClast, mean (SD) / Cmax, mean (SD): single oral dose D/C/F/TAF 800/150/200/10 mg;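 for all read-outs here: volunteers randomized to two single-dose treatment sessions separated by a washout of at least 7 days, dosing preceded by an overnight fast of at least 10 h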
[6] = Bioequivalence study: plasma pharmacokinetics; settings: single oral dose D/C/F/TAF 800/150/200/10 mg (test), fed, standardized regular breakfast
[7] = clinical; settings: human, po
[8] = cited from earlier work; for Mean systemic tenofovir exposure: TAF group versus TDF group of the Phase II study
[9] = administered as D/C/F/TAF, fed = standardized high-fat breakfast
[10] = fed, standardized high-fat breakfast (reference)
[11] = subset of 32 treatment-naive HIV-1-infected adults

| Structure (SMILES) | Genotypic susceptibility at screening/baseline, patients [1] | AUC(0-inf) ([2]; in vivo) [ng·h/mL] | AUC(0-t) ([2]; in vivo) [ng·h/mL] | Cmax ([2]; in vivo) [ng/mL] | AUCinf lower in fasted compared with fed conditions [5, 9] [%] | AUCinf geometric mean ratio (90% CI), fasted (test) vs fed (reference) [5] | AUClast geometric mean ratio (90% CI), fasted (test) vs fed (reference) [5] | Cmax geometric mean ratio (90% CI), fasted (test) vs fed (reference) [5] | t1/2term, mean (SD) ([5]; fasted (test)) | AUCinf, mean (SD) [5, 10] | Cmax, mean (SD) [5, 10] | t1/2term, mean (SD) [5, 10] | t1/2term, mean [6] [h] | Mean systemic tenofovir exposure [8] [ng·h/mL] | other results |
| --- | --- | --- | --- | --- | --- | --- | --- | --- | --- | --- | --- | --- | --- | --- | --- |
| Nc1nc(=O)n([C@@H]2CS[C@H](CO)O2)cc1F [FTC, emtricitabine] | (98) % | 11900 | 11700 | 2050 | – | – | – | – | – | – | – | – | – | – | AUCinf geometric mean ratio, test vs reference [3]: 100.13%; AUClast geometric mean ratio, test vs reference [3]: 100.04%; Cmax geometric mean ratio, test vs reference [3]: 99.32%; t1/2term, mean [3]: 17.0 h; t1/2term, mean ([3]; po): 16.5 h; Cmax higher in fasted compared with fed conditions [4]: 26%; AUClast geometric mean ratio (90% CI), fasted (test) vs fed (reference) ([4]; po): 100.12 (96.29-104.10) % |
| CC(C)c1nc(CN(C)C(=O)N[C@@H](CCN2CCOCC2)C(=O)N[C@H](CC[C@H](Cc2ccccc2)NC(=O)OCc2cncs2)Cc2ccccc2)cs1 [COBI, cobicistat] | – | – | – | – | 16 | 84.39^k (68.52-103.95)^ % | 70.90 (51.13-98.30) % | 76.96 (55.70-106.33) % | 4.1 (0.9) hours | 6258 (2268) ng · h/mL | 711 (164) ng/mL | 3.9 (0.6) hours | 3.7 | – | AUClast lower in fasted compared with fed conditions [5, 9]: 29%; Cmax lower in fasted compared with fed conditions [5, 9]: 23%; AUClast, mean (SD) [5, 10]: 6168 (2260) ng · h/mL; AUC(0-inf) ([2]; plasma, oral): 6870 ng·h/mL; AUC(0-t) ([2]; plasma, oral): 6760 ng·h/mL; Cmax ([2]; plasma, oral): 881 ng/mL; Tmax ([2]; plasma, oral): 4 h; Tmax ([7]; plasma): 3 h |
| CC(C)OC(=O)OCOP(=O)(CO[C@H](C)Cn1cnc2c(N)ncnc21)OCOC(=O)OC(C)C [TDF, tenofovir disoproxil fumarate] | (100) % | – | – | – | – | – | – | – | – | – | – | – | – | 3737 | – |
| CC(C)OC(=O)[C@H](C)N[P@](=O)(CO[C@H](C)Cn1cnc2c(N)ncnc21)Oc1ccccc1 [TAF, tenofovir alafenamide] | – | 141 | 132 | 120 | 20 | 80.38^l (73.04-88.45)^ % | 89.54 (81.20-98.72) % | 182.29 (140.50-236.50) % | 0.3 (0.2) hours | 125 (57.3) ng · h/mL | 107 (65.2) ng/mL | 0.5 hours and 0.5 (0.1) hours | 0.3 | 339 | AUClast, fasted versus fed conditions (90% CI of the GMR within 80% to […]) ([5]; administered as D/C/F/TAF): comparable under both conditions; Cmax higher in fasted compared with fed conditions [5, 9]: 82%; AUClast, mean (SD) ([5]; fasted (test)): 106 (44.7) ng · h/mL; Tmax ([2]; in vivo): 1.01 h; Tmax ([7]; in vivo): 0.5 h; Lower mean systemic tenofovir exposure than in the TDF group ([8]; Phase II study): greater than 90%; Mean plasma exposure (AUClast) [8, 11]: 130.5 ng·h/mL; Median plasma half-life [8, 11]: 0.45 h |
| CC(C)CN(C[C@@H](O)[C@H](Cc1ccccc1)NC(=O)O[C@H]1CO[C@H]2OCC[C@H]21)S(=O)(=O)c1ccc(N)cc1 [DRV, darunavir] | (100) % | 85200 | – | 6620 | – | – | – | – | – | – | – | – | – | – | – |
